Laboratory results as given in patent US11028090B2 (Dong Wha Pharm. Co., Ltd., priority 2017, dated 2021).
Where a name gives a salt, the structure may show the parent alone. Read-outs that look alike come from different tables or passages of the source.

Molecular target: BRD4 (BD1+BD2) bromodomain (Homo sapiens (Human), UniProt O60885)
Assay: BRD4 binding inhibition (AlphaScreen, GST-BRD4 vs tetraacetylated histone H4 peptide)
Procedure: A mixture comprising 100 nM GST-BRD4 (BD1+BD2) and 100 nM biotinylated acetyl-histone H4 (Lys5,8,12,16) peptide was prepared in assay buffer (50 mM HEPES pH 7.4; 25 mM NaCl; 0.05% Tween 20; 0.1% bovine serum albumin (BSA); 10 mM dithiothreitol (DTT)). After adding 6 μl of the mixture to the diluent, 6 μl of the pre-mixed AlphaLISA Glutathione Acceptor Beads and AlphaScreen Streptavidin Donor Beads (PerkinElmer, 10 μg/ml in assay buffer, respectively) was added thereto. The samples were incubated in the dark at room temperature for 30 minutes (shaking at 300 rpm). Then, the signals were measured with PerkinElmer Envision HTS Multilabel Reader using an alpha screen protocol of PerkinElmer. Each plate contained the negative control in which biotinylated acetyl-histone H4 peptide and GST-BRD4 (BD1+BD2) were replaced by assay buffer. In the case of using the software GraphPad Prism for calculation, the negative control point was input as a low standard value. The positive control (probe molecule l-BET762 containing protein/peptide mixture) proceeded to pipetting.

[1] = GST-BRD4 (BD1+BD2) vs biotinylated acetyl-histone H4 peptide, AlphaScreen, read-out: BRD4 IC50
[2] = GST-BRD4 (BD1+BD2) / biotinylated acetyl-histone H4 (Lys5,8,12,16) peptide, read-out: IC50, BRD4 binding inhibition

| Compound | IC50 [1] | IC50 [2] |
| --- | --- | --- |
| COc1cc2nc(NCCCCNC(=O)Nc3ccccc3)c3nnc(C)n3c2cc1OC [Example 94] | 57 nM | – |
| Cc1nnc2c(NCCCCNC(=O)OC(C)(C)C)nc3cc(C(=O)NCc4ccc(Cl)cc4)ccc3n12 [Example 211, {4-[7-(4-chloro-benzylcarbamoyl)-1-methyl-[1,2,4]triazolo[4,3-a]quinoxaline-4-ylamino]-butyl}-carbamic acid-tert-butylester] | 34 nM | ≤ 50 nM |
| COc1ccc2c(c1)nc(NCCCCNC(=O)N(C)C)c1nnc(C)n12 [Example 334, 3-[4-(7-methoxy-1-methyl-[1,2,4]triazolo[4,3-a]quinoxaline-4-ylamino)-butyl]-1,1-dimethyl-urea] | 60 nM | – |
| COc1cc(C)c2c(c1)nc(NCCCCN)c1nnc(C)n12 [Example 456, N^1-(7-methoxy-1,9-dimethyl-[1,2,4]triazolo[4,3-a]quinoxaline-4-yl)-butane-1,4-diamine ditrifluoroacetic acid] | 75 nM | – |
| Cc1nnc2c(NCCCCOC(=O)C(C)(C)C)nc3ccccc3n12 [Example 631, 2,2-dimethyl-propionic acid-4-(1-methyl-[1,2,4]triazolo[4,3-a]quinoxaline-4-ylamino)-butylester] | 47 nM | ≤ 50 nM |
| COc1cc2nc(NCCCCNC(=O)CC(C)C)c3nnc(C)n3c2cc1Cc1ccc([N+](=O)[O-])cc1 [Example 339, N-{4-[7-methoxy-1-methyl-8-(4-nitro-benzyl)-[1,2,4]triazolo[4,3-a]quinoxaline-4-ylamino]-butyl}-3-methyl-butyramide] | 46 nM | ≤ 50 nM |
| COc1cc2nc(NCCCCNC(=O)c3ccc(Cl)cc3)c3nnc(C)n3c2cc1OC [Example 100, 4-chloro-N-[4-(7,8-dimethoxy-1-methyl-[1,2,4]triazolo[4,3-a]quinoxaline-4-ylamino)-butyl]-benzamide] | 69 nM | – |
| COc1cc2nc(NCCCCNC(=O)[C@H](O)C(C)C)c3nnc(C)n3c2cc1OC [Example 82, N-[4-(7,8-dimethoxy-1-methyl-[1,2,4]triazolo[4,3-a]quinoxaline-4-ylamino)-butyl]-2-(R)-hydroxy-3-methyl-butyramide] | 12 nM | ≤ 50 nM |
| COCCOc1ccc2c(c1)nc(NCCCCNC(=O)c1cccnc1)c1nnc(C)n12 [Example 417, N-{4-[7-(2-methoxy-ethoxy)-1-methyl-[1,2,4]triazolo[4,3-a]quinoxaline-4-ylamino]-butyl}-nicotinamide] | 60 nM | – |
| COCCOc1ccc2c(c1)nc(NCCCCNC(=O)[C@@H](NC(=O)C(C)(C)C)C(C)C)c1nnc(C)n12 [Example 402, (S)-2-(2,2-dimethyl-propionylamino)-N-{4-[7-(2-methoxy-ethoxy)-1-methyl-[1,2,4]triazolo[4,3-a]quinoxaline-4-ylamino]-butyl}-3-methyl-butyramide] | 18 nM | ≤ 50 nM |
| COc1ccc2nc(NCCCCNC(=O)C(C)(C)C)c3nnc(C)n3c2c1 [Example 123, N-[4-(8-methoxy-1-methyl-[1,2,4]triazolo[4,3-a]quinoxaline-4-ylamino)-butyl]-2,2-dimethyl-propionamide] | 42 nM | ≤ 50 nM |
| Cc1cc2nc(NCCCCNC(=O)OC(C)(C)C)c3nnc(C)n3c2cc1C [Example 34, [4-(1,7,8-trimethyl-[1,2,4]triazolo[4,3-a]quinoxaline-4-ylamino)-butyl]-carbamic acid-tert-butylester] | 81 nM | – |
| COc1ccc2c(c1)nc(NCCCCNC(=O)[C@@H](OC)C(C)C)c1nnc(C)n12 [Example 301, 2-(S)-methoxy-N-[4-(7-methoxy-1-methyl-[1,2,4]triazolo[4,3-a]quinoxaline-4-ylamino)-butyl]-3-methyl-butyramide] | 16 nM | ≤ 50 nM |
| Cc1nnc2c(NCCCCNC(=O)Nc3ccccc3)nc3ccc(F)cc3n12 [Example 53, 1-[4-(8-fluoro-1-methyl-[1,2,4]triazolo[4,3-a]quinoxaline-4-ylamino)-butyl]-3-phenyl-urea] | 60 nM | – |
| COc1cc2nc(NCCCCNC(=O)N3CCOCC3)c3nnc(C)n3c2cc1OC [Example 92, morpholine-4-carboxylic acid-[4-(7,8-dimethoxy-1-methyl-[1,2,4]triazolo[4,3-a]quinoxaline-4-ylamino)-butyl]-amide] | 41 nM | ≤ 50 nM |
| Cc1noc(C)c1-c1ccc2nc(NCCCCNC(=O)[C@@H](O)C(C)C)c3nnc(C)n3c2c1 [Example 582, N-{4-[8-(3,5-dimethyl-isoxazol-4-yl)-1-methyl-[1,2,4]triazolo[4,3-a]quinoxaline-4-ylamino]-butyl}-2-(S)-hydroxy-3-methyl-butyramide] | 10 nM | ≤ 10 nM |

| Compound | IC50 [1] | IC50 [2] |
| --- | --- | --- |
| COc1ccc2c(nc(NCCCCN)c3nnc(C)n32)c1Cl [Example 460, dihydrochloride] | 12 nM | ≤ 50 nM |
| Cc1nnc2c(NCCCCNC(=O)CC(C)C)nc3cc(C(=O)O)ccc3n12 [Example 201, 1-methyl-4-[4-(3-methyl-butyrylamino)-butylamino]-[1,2,4]triazolo[4,3-a]quinoxaline-7-carboxylic acid] | 26 nM | ≤ 50 nM |
| COCCOc1cc2c(cc1OC)nc(NCCCCNC(=O)CC(C)C)c1nnc(C)n12 [Example 485, N-{4-[7-methoxy-8-(2-methoxy-ethoxy)-1-methyl-[1,2,4]triazolo[4,3-a]quinoxaline-4-ylamino]-butyl}-3-methyl-butyramide] | 59 nM | – |
| COc1ccc2c(c1)nc(NCCCCNC(=O)OCC(C)C)c1nnc(C(C)C)n12 [Example 629, [4-(1-isopropyl-7-methoxy-[1,2,4]triazolo[4,3-a]quinoxaline-4-ylamino)-butyl]-carbamic acid isobutylester] | 16 nM | ≤ 50 nM |
| COc1c(C)ccc2c1nc(NCCCCNC(=O)OCC(C)C)c1nnc(C)n12 [Example 134, [4-(6-methoxy-1,7-dimethyl-[1,2,4]triazolo[4,3-a]quinoxaline-4-ylamino)-butyl]-carbamic acid isobutylester] | 19 nM | ≤ 50 nM |
| Cc1nnc2c(NCCCCNC(=O)OC(C)(C)C)nc3ccc(C(N)=O)cc3n12 [Example 533, [4-(8-carbamoyl-1-methyl-[1,2,4]triazolo[4,3-a]quinoxaline-4-ylamino)-butyl]-carbamic acid-tert-butylester] | 67 nM | – |
| COCCOc1ccc2c(c1)nc(NCCCCNC(=O)[C@@H](N)C(C)C)c1nnc(C)n12 (stereo in doubt) [Example 397, 2-amino-N-{4-[7-(2-methoxy-ethoxy)-1-methyl-[1,2,4]triazolo[4,3-a]quinoxaline-4-ylamino]-butyl}-3-methyl-butyramide] | 29 nM | ≤ 50 nM |
| COC(=O)c1ccc2nc(NCCCCNC(=O)OC(C)(C)C)c3nnc(C)n3c2c1 [Example 530, 4-(4-tert-butoxycarbonylamino-butylamino)-1-methyl-[1,2,4]triazolo[4,3-a]quinoxaline-8-carboxylic acid methylester] | 34 nM | ≤ 50 nM |
| Cc1nnc2c(NCCCCNC(=O)c3cccc(Cl)c3)nc3ccccc3n12 [Example 15, 3-chloro-N-[4-(1-methyl-[1,2,4]triazolo[4,3-a]quinoxaline-4-ylamino)-butyl]-benzamide] | 27 nM | ≤ 50 nM |
| Cc1ccc(C(=O)NCCCCNc2nc3ccccc3n3c(C)nnc23)c(Cl)n1 [Example 21, 2-chloro-6-methyl-N-[4-(1-methyl-[1,2,4]triazolo[4,3-a]quinoxaline-4-ylamino)-butyl]-nicotinamide] | 57 nM | – |
| COc1ccc2c(c1)nc(NCCCCNC(=O)CC(C)C)c1nnc(C(C)C)n12 [Example 627] | 23 nM | ≤ 50 nM |
| Cc1nnc2c(NCCCCNC(=O)c3ccc(Cl)c(Cl)c3)nc3ccccc3n12 [Example 16, 3,4-dichloro-N-[4-(1-methyl-[1,2,4]triazolo[4,3-a]quinoxaline-4-ylamino)-butyl]-benzamide] | 44 nM | ≤ 50 nM |
| Cc1nnc2c(NCCCCNC(=O)OC(C)(C)C)nc3cc(OC(C)C)ccc3n12 [Example 447, [4-(7-isopropoxy-1-methyl-[1,2,4]triazolo[4,3-a]quinoxaline-4-ylamino)-butyl]-carbamic acid-tert-butylester] | 21 nM | ≤ 50 nM |
| COc1cc2nc(NCCCCNC(=O)[C@H](O)C(C)C)c3nnc(C)n3c2cc1C(F)(F)F [Example 478, 2-(R)-hydroxy-N-[4-(7-methoxy-1-methyl-8-trifluoromethyl-[1,2,4]triazolo[4,3-a]quinoxaline-4-ylamino)-butyl]-3-methyl-butyramide] | 44 nM | ≤ 50 nM |
| COc1cc2c(nc(NCCCCNC(=O)CC(C)C)c3nnc(C)n32)c(OC)c1OC [Example 195, 3-methyl-N-[4-(6,7,8-trimethoxy-1-methyl-[1,2,4]triazolo[4,3-a]quinoxaline-4-ylamino)-butyl]-butyramide] | 69 nM | – |
| COc1cc2nc(NCCCCNC(=O)OCC(C)C)c3nnc(C)n3c2cc1C(F)(F)F [Example 474, [4-(7-methoxy-1-methyl-8-trifluoromethyl-[1,2,4]triazolo[4,3-a]quinoxaline-4-ylamino)-butyl]-carbamic acid isobutylester] | 44 nM | ≤ 50 nM |
